Measurements taken from the kinase profiling compilation of Christmann-Franck et al. (2016).
Several values for one entry are separate records, joined by “and”; a condition that tells them apart may be missing. Equal entries are not always repeated.

Assays:
Assay in all cases: radiometric filter-binding kinase assay, Kinase HotSpot
Conditions in all cases: compound 0.5 µM; ATP 10 µM
ADRBK1 (human) = ADRBK1 (human) (UniProt P25098)
AKT1 (human) = AKT1 (human) (UniProt P31749)
BTK (human) = BTK (human) (UniProt Q06187)
CAMKK2 (human) = CAMKK2 (human) (UniProt Q96RR4)
CDK1 CCNB1 (human) = CDK1 CCNB1 (human) (UniProt P06493+P14635)
CDK2 CCNA2 (human) = CDK2 CCNA2 (human) (UniProt P24941+P20248)
Sequence of CDK2 CCNA2 (human) (P20248 whole entry, looked up, other chains not shown): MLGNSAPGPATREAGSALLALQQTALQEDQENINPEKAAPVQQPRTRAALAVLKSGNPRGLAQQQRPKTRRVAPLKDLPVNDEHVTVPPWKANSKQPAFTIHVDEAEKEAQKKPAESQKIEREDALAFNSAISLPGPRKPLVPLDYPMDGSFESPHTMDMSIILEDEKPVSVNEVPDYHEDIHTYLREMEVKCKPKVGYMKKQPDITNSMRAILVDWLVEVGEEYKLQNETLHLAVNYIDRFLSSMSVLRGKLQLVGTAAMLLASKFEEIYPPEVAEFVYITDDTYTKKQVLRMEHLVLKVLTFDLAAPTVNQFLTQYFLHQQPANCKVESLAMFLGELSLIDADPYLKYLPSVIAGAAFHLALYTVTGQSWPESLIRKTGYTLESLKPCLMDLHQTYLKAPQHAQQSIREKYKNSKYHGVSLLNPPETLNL

CDK4 CCND1 (human) = CDK4 CCND1 (human) (UniProt P24385+P11802)
CDK6 CCND1 (human) = CDK6 CCND1 (human) (UniProt Q00534+P24385)
Sequence of CDK6 CCND1 (human) (P24385 whole entry, looked up): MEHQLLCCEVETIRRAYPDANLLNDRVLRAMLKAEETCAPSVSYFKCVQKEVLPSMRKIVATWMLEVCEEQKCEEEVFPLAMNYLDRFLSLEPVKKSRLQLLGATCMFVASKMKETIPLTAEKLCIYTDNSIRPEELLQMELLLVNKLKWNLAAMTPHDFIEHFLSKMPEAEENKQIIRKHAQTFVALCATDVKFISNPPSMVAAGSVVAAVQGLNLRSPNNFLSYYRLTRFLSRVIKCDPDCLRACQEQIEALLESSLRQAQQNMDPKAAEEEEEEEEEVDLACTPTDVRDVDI
Sequence of CDK6 CCND1 (human) (Q00534 whole entry, looked up): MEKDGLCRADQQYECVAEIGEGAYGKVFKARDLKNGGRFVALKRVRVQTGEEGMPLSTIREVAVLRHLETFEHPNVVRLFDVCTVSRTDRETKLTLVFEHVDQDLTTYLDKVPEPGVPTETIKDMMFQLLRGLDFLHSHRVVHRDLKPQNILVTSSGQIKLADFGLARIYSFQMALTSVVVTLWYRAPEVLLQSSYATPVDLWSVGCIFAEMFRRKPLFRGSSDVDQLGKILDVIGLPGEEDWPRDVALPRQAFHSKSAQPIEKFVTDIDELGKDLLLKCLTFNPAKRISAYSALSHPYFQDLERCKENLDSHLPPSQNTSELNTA

CDK9 CCNK (human) = CDK9 CCNK (human) (UniProt O75909+P50750)
CSNK1E (human) = CSNK1E (human) (UniProt P49674)
EPHA2 (human) = EPHA2 (human) (UniProt P29317)
EPHA4 (human) = EPHA4 (human) (UniProt P54764)
EPHA8 (human) = EPHA8 (human) (UniProt P29322)
FES (human) = FES (human) (UniProt P07332)
FRK (human) = FRK (human) (UniProt P42685)
Sequence of FRK (human) (P42685 whole entry, looked up): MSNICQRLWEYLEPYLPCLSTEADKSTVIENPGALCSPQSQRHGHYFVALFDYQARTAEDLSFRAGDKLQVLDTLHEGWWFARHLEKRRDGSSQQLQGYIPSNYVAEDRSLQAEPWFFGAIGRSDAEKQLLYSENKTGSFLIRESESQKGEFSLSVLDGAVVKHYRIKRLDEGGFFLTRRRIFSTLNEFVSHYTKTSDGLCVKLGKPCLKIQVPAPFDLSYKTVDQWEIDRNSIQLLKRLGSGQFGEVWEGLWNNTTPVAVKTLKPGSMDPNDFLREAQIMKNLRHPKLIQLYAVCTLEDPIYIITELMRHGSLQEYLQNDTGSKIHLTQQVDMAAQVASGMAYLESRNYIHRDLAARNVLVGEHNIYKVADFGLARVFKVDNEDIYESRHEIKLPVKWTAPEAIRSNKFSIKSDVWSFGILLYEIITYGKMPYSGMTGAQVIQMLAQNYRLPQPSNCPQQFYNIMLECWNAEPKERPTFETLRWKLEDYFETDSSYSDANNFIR

GSG2 (human) = GSG2 (human) (UniProt Q8TF76)
HCK (human) = HCK (human) (UniProt P08631)
Sequence of HCK (human) (P08631 whole entry, looked up): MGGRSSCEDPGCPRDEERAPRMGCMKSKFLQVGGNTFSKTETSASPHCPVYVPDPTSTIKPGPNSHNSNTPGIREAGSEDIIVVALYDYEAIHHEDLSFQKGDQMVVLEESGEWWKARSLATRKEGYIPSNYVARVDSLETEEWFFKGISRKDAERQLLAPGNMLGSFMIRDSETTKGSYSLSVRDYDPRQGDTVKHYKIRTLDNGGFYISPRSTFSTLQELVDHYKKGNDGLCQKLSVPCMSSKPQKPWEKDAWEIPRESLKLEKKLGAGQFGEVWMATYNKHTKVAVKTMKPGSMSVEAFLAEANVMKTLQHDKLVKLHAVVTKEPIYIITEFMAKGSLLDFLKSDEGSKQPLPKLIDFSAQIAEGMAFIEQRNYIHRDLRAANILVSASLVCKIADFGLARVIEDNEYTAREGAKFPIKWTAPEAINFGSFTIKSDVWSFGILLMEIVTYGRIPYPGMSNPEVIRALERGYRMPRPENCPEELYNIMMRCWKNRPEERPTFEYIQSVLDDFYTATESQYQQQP

IRAK4 (human) = IRAK4 (human) (UniProt Q9NWZ3)
LRRK2 (human) = LRRK2 (human) (UniProt Q5S007)
LYN (human) = LYN (human) (UniProt P07948)
MAP4K2 (human) = MAP4K2 (human) (UniProt Q12851)
MLTK (human) = MLTK (human) (UniProt Q9NYL2)
Sequence of MLTK (human) (Q9NYL2 whole entry, looked up): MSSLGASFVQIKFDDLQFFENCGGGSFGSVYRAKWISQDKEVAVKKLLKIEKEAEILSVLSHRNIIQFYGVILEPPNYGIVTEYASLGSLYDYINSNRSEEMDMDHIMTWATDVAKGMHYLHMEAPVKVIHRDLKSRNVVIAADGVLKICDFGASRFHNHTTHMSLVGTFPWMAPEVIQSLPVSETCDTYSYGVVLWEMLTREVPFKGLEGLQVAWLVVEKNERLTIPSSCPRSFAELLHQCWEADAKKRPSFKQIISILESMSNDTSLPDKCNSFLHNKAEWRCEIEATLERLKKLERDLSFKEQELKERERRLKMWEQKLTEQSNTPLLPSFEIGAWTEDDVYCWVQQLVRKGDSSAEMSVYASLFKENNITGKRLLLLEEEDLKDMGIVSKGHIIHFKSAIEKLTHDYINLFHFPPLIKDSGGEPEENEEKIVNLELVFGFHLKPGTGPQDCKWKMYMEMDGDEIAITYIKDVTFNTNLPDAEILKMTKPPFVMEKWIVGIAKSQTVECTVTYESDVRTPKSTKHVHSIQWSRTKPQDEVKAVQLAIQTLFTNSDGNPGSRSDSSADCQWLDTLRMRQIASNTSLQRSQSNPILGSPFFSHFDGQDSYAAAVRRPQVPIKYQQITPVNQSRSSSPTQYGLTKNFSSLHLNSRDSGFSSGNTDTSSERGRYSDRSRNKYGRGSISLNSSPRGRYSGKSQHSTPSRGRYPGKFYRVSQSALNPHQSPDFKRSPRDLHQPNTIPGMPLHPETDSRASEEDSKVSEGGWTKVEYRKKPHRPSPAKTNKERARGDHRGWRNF

MST4 (human) = MST4 (human) (UniProt Q9P289)
NTRK3 (human) = NTRK3 (human) (UniProt Q16288)
PAK4 (human) = PAK4 (human) (UniProt O96013)
PIM1 (human) = PIM1 (human) (UniProt P11309)
PRKCI (human) = PRKCI (human) (UniProt P41743)
PRKG2 (human) = PRKG2 (human) (UniProt Q13237)
PTK2B (human) = PTK2B (human) (UniProt Q14289)
RPS6KA3 KD1 KD2 (human) = RPS6KA3 KD1 KD2 (human) (UniProt P51812)
RPS6KA6 KD1 KD2 (human) = RPS6KA6 KD1 KD2 (human) (UniProt Q9UK32)
SRMS (human) = SRMS (human) (UniProt Q9H3Y6)
Sequence of SRMS (human) (Q9H3Y6 whole entry, looked up): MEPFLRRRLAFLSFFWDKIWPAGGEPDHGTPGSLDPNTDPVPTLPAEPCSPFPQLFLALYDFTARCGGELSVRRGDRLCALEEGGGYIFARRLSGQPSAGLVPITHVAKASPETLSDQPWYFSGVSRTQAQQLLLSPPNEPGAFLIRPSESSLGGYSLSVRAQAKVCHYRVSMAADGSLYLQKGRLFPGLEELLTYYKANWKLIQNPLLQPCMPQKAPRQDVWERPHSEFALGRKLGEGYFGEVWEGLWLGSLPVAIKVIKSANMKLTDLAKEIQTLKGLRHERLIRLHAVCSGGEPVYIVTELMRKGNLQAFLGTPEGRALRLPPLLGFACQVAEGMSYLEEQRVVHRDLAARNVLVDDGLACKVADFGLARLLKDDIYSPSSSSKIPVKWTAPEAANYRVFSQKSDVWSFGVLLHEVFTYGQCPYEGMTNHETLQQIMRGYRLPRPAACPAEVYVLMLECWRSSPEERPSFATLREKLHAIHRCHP

SRPK1 (human) = SRPK1 (human) (UniProt Q96SB4)
Sequence of SRPK1 (human) (Q96SB4 whole entry, looked up): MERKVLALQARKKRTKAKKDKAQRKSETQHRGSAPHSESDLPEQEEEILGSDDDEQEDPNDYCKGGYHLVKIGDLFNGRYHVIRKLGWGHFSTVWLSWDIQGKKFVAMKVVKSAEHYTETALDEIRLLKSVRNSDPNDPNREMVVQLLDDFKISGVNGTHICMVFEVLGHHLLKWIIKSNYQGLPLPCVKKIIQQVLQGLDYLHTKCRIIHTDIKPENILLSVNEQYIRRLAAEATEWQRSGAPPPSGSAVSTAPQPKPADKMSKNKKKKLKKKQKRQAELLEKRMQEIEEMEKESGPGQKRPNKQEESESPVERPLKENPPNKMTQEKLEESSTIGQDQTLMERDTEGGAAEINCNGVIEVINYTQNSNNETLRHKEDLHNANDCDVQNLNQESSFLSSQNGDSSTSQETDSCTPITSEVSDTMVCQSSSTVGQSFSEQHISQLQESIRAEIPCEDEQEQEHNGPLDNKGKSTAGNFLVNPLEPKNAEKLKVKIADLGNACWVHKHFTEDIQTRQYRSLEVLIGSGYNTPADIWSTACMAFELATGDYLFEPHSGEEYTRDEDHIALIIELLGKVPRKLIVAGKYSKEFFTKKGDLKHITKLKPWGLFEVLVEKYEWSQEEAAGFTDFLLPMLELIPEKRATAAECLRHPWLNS

SRPK2 (human) = SRPK2 (human) (UniProt P78362)
SRPK3 (human) = SRPK3 (human) (UniProt Q9UPE1)
STK11 (human) = STK11 (human) (UniProt Q15831)
STK39 (human) = STK39 (human) (UniProt Q9UEW8)
STK4 (human) = STK4 (human) (UniProt Q13043)
TXK (human) = TXK (human) (UniProt P42681)
ULK3 (human) = ULK3 (human) (UniProt Q6PHR2)
PRKCG (human) = PRKCG (human) (UniProt P05129)

Structure (SMILES)	residual activity (ADRBK1 (human)) [%]	residual activity (AKT1 (human)) [%]	residual activity (BTK (human)) [%]	residual activity (CAMKK2 (human)) [%]	residual activity (CDK1 CCNB1 (human)) [%]	residual activity (CDK4 CCND1 (human)) [%]	residual activity (CDK6 CCND1 (human)) [%]	residual activity (CDK9 CCNK (human)) [%]	residual activity (CSNK1E (human)) [%]	residual activity (EPHA4 (human)) [%]	residual activity (EPHA8 (human)) [%]	residual activity (FRK (human)) [%]	residual activity (GSG2 (human)) [%]	residual activity (HCK (human)) [%]	residual activity (IRAK4 (human)) [%]	residual activity (LRRK2 (human)) [%]	residual activity (MAP4K2 (human)) [%]	residual activity (MLTK (human)) [%]	residual activity (MST4 (human)) [%]	residual activity (NTRK3 (human)) [%]	further results
O=C1Nc2ccc(Cl)cc2/C1=C/c1cc(Cl)c(O)c(Cl)c1	93.4	97.9	92.1	51.5	96.3	94.7	97	79.4	66.6	93.1	91.5	70.3	8.65	83.2	101	11	62.6	77.4	101	44.8	residual activity (CDK2 CCNA2 (human)): 99.5%; residual activity (EPHA2 (human)): 95%; residual activity (FES (human)): 93.7%; residual activity (LYN (human)): 81.6% and 87.5%; residual activity (PAK4 (human)): 88.7%; residual activity (PIM1 (human)): 19.4%; residual activity (PRKCI (human)): 94.1%; residual activity (PRKG2 (human)): 97%; residual activity (PTK2B (human)): 96.7%; residual activity (RPS6KA3 KD1 KD2 (human)): 96%; residual activity (RPS6KA6 KD1 KD2 (human)): 78.5%; residual activity (SRMS (human)): 86.3%; residual activity (SRPK1 (human)): 106%; residual activity (SRPK2 (human)): 95.2%; residual activity (SRPK3 (human)): 88.3%; residual activity (STK11 (human)): 93.1%; residual activity (STK39 (human)): 97%; residual activity (STK4 (human)): 32.5%; residual activity (TXK (human)): 86.6%; residual activity (ULK3 (human)): 92.2%
COc1cc2ncnc(Nc3cccc(Cl)c3)c2cc1OC	96.6	89.9	76.7	97.5	90.3	103	92.5	106	75.3	81.7	81.5	81.1	84.8	61.8	77.7	60.9	98.1	99.3	108	86.3	residual activity (EPHA2 (human)): 85.2%; residual activity (FES (human)): 104%; residual activity (PAK4 (human)): 76.5%; residual activity (PIM1 (human)): 91.5%; residual activity (PRKCG (human)): 105%; residual activity (PRKCI (human)): 97.5%; residual activity (PRKG2 (human)): 92.2%; residual activity (PTK2B (human)): 85.3%; residual activity (RPS6KA3 KD1 KD2 (human)): 87.8%; residual activity (RPS6KA6 KD1 KD2 (human)): 90.5%; residual activity (SRMS (human)): 93.8%; residual activity (SRPK1 (human)): 102%; residual activity (SRPK2 (human)): 88.2%; residual activity (SRPK3 (human)): 90.1%; residual activity (STK11 (human)): 96.8%; residual activity (STK39 (human)): 97%; residual activity (STK4 (human)): 92%; residual activity (TXK (human)): 75%; residual activity (ULK3 (human)): 77.3%
O=C1NC(=O)c2c1c1c3ccccc3n3c1c1c2c2ccccc2n1C1CCC3O1	97.9	63.9	43.3	7.93	29.9	11.2	6.06	15.8	47.3	91.4	89.9	102	18.5	24.8	14	1.91	3.75	89.7	20.5	1.41	residual activity (CDK2 CCNA2 (human)): 15.6%; residual activity (EPHA2 (human)): 91.3%; residual activity (FES (human)): 42.1%; residual activity (PAK4 (human)): 75.3%; residual activity (PIM1 (human)): 0.435%; residual activity (PRKCG (human)): 32.8%; residual activity (PRKCI (human)): 86.4%; residual activity (PRKG2 (human)): 6.01%; residual activity (PTK2B (human)): 41.5%; residual activity (RPS6KA3 KD1 KD2 (human)): 2.35%; residual activity (RPS6KA6 KD1 KD2 (human)): 1.08%; residual activity (SRMS (human)): 105%; residual activity (SRPK1 (human)): 88.1%; residual activity (SRPK2 (human)): 107%; residual activity (SRPK3 (human)): 63.6%; residual activity (STK11 (human)): 50.5%; residual activity (STK39 (human)): 88.3%; residual activity (STK4 (human)): 3.56%; residual activity (TXK (human)): 22.7%; residual activity (ULK3 (human)): 33%
CC(C)N(CCC(=O)c1ccc2ccccc2c1)Cc1ccccc1	106	100	87.5	85.2	104	103	96.8	99.5	96.1	94.5	95.9	95.8	95.6	94.9	103	98.2	98.3	90.5	108	103	residual activity (CDK2 CCNA2 (human)): 109%; residual activity (FES (human)): 92.7%; residual activity (LYN (human)): 89.3% and 98.8%; residual activity (PAK4 (human)): 90.4%; residual activity (PIM1 (human)): 100%; residual activity (PRKCG (human)): 92.7%; residual activity (PRKCI (human)): 97.1%; residual activity (PRKG2 (human)): 139%; residual activity (PTK2B (human)): 106%; residual activity (RPS6KA3 KD1 KD2 (human)): 95.1%; residual activity (RPS6KA6 KD1 KD2 (human)): 97.4%; residual activity (SRMS (human)): 103%; residual activity (SRPK1 (human)): 103%; residual activity (SRPK2 (human)): 99.1%; residual activity (SRPK3 (human)): 96.5%; residual activity (STK11 (human)): 94.2%; residual activity (STK39 (human)): 88.3%; residual activity (STK4 (human)): 92.5%; residual activity (TXK (human)): 97.1%; residual activity (ULK3 (human)): 95.8%
Cc1ccc(Nc2nccc(N(C)c3ccc4c(C)n(C)nc4c3)n2)cc1S(N)(=O)=O	90.3	91.2	78.8	98.5	99.6	88.4	96.5	92.7	97.5	94.5	90	58.1	90.4	64.8	98.4	109	72.5	96.9	108	87.8	residual activity (CDK2 CCNA2 (human)): 96.1%; residual activity (EPHA2 (human)): 85.7%; residual activity (LYN (human)): 52.1% and 58.9%; residual activity (PAK4 (human)): 92%; residual activity (PIM1 (human)): 100%; residual activity (PRKCG (human)): 93.5%; residual activity (PRKCI (human)): 96.1%; residual activity (PRKG2 (human)): 96%; residual activity (PTK2B (human)): 92%; residual activity (RPS6KA3 KD1 KD2 (human)): 99.1%; residual activity (RPS6KA6 KD1 KD2 (human)): 96.8%; residual activity (SRMS (human)): 115%; residual activity (SRPK1 (human)): 100%; residual activity (SRPK2 (human)): 104%; residual activity (SRPK3 (human)): 102%; residual activity (STK11 (human)): 92.1%; residual activity (STK39 (human)): 95.9%; residual activity (STK4 (human)): 98.4%; residual activity (TXK (human)): 40.2%; residual activity (ULK3 (human)): 102%
